Tests used:
PPARγ LBD = assay: Two-dimensional titration of SR11237 and unlabeled mutant RXRα LBD: CBP-1 recruitment by sGFP-PPARγ LBD (HTRF); type: biochemical, human;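 for HTRF mean; N=2: mutant RXRα LBD carries mutations that block its own coactivator recruitment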
RXRα LBD mutant = molecular target: T1, RXRα LBD mutant (Homo sapiens, UniProt P19793, E453R/F450Y/K284E/V280T/V298T); assay: NCOR1 corepressor displacement HTRF assay on sGFP-RXRα mutant LBD; type: biochemical; details: 100 nM sGFP-RXRα mutant LBD, 12 nM NCOR1 ID2
T1 construct: His10-tag with TEV site (N, cleaved yes); made in house; host or cells: E. coli T7 express (co-expressed with GroEL/ES)
T1 sequence (P19793 226-462 V280T/K284E/V298T/F450Y/E453R): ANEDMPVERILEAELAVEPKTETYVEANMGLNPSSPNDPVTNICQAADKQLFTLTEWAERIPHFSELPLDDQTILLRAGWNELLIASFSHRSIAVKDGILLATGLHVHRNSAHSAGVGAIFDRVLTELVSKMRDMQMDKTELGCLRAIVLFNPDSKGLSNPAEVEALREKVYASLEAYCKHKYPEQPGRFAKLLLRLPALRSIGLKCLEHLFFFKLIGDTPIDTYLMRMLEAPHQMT

Gal4-RXRα wildtype = molecular target: T2, Gal4-RXRα wildtype (Homo sapiens, UniProt P19793); assay: Gal4-RXRα wildtype / VP16-SRC1-2 hybrid reporter gene assay in HEK293T cells; details: Gal4-RXRα with VP16-SRC1
T2 sequence (P19793 225-462): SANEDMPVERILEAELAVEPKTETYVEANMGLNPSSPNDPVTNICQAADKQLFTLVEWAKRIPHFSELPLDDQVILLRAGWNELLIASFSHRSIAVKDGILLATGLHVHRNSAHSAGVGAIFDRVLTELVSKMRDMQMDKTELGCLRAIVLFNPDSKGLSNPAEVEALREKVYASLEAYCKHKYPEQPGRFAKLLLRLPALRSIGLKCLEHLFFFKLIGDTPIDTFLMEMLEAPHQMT
T2 sequence (Q15788 676-701 C676S partner): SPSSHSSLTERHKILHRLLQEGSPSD

`CC1(C)CCC(C)(C)c2cc(C3(c4ccc(C(=O)O)cc4)OCCO3)ccc21` [SR11237] was tested, and the “HTRF mean; N=2” value (PPARγ LBD; SR11237 163.84 nM, RXRα mutant LBD 31.25 nM) was 8037, the “HTRF mean; N=2” value (PPARγ LBD; SR11237 163.84 nM, RXRα mutant LBD 62.5 nM) was 8496 and the “HTRF mean; N=2” value (PPARγ LBD; SR11237 163.84 nM, RXRα mutant LBD 250 nM) was 9360. The “HTRF mean; N=2” value (PPARγ LBD; SR11237 163.84 nM, RXRα mutant LBD 500 nM) was 9174, the “HTRF mean; N=2” value (PPARγ LBD; SR11237 163.84 nM, RXRα mutant LBD 1000 nM) was 9009 and the “HTRF mean; N=2” value (PPARγ LBD; SR11237 1024 nM, RXRα mutant LBD 1.95312 nM) was 7904. The “HTRF mean; N=2” value (PPARγ LBD; SR11237 1024 nM, RXRα mutant LBD 3.90625 nM) was 7933, the “HTRF mean; N=2” value (PPARγ LBD; SR11237 1024 nM, RXRα mutant LBD 7.8125 nM) was 8096 and the “HTRF mean; N=2” value (PPARγ LBD; SR11237 1024 nM, RXRα mutant LBD 31.25 nM) was 8413. The “HTRF mean; N=2” value (PPARγ LBD; SR11237 1024 nM, RXRα mutant LBD 62.5 nM) was 8597, the “HTRF mean; N=2” value (PPARγ LBD; SR11237 1024 nM, RXRα mutant LBD 250 nM) was 9475 and the “HTRF mean; N=2” value (PPARγ LBD; SR11237 1024 nM, RXRα mutant LBD 500 nM) was 9672. The “HTRF mean; N=2” value (PPARγ LBD; SR11237 1024 nM, RXRα mutant LBD 1000 nM) was 9907, the “HTRF mean; N=2” value (PPARγ LBD; SR11237 16000 nM, RXRα mutant LBD 0.976562 nM) was 8373 and the “HTRF mean; N=2” value (PPARγ LBD; SR11237 16000 nM, RXRα mutant LBD 1.95312 nM) was 8383. For the same molecule, the “HTRF mean; N=2” value (PPARγ LBD; SR11237 16000 nM, RXRα mutant LBD 3.90625 nM) was 8482, the “HTRF mean; N=2” value (PPARγ LBD; SR11237 16000 nM, RXRα mutant LBD 7.8125 nM) was 8492 and the “HTRF mean; N=2” value (PPARγ LBD; SR11237 16000 nM, RXRα mutant LBD 31.25 nM) was 8658. The “HTRF mean; N=2” value (PPARγ LBD; SR11237 16000 nM, RXRα mutant LBD 62.5 nM) was 9133, the “HTRF mean; N=2” value (PPARγ LBD; SR11237 16000 nM, RXRα mutant LBD 250 nM) was 9981 and the “HTRF mean; N=2” value (PPARγ LBD; SR11237 16000 nM, RXRα mutant LBD 500 nM) was 10090. The “HTRF mean; N=2” value (PPARγ LBD; SR11237 16000 nM, RXRα mutant LBD 1000 nM) was 10256, the “HTRF mean; N=2” value (PPARγ LBD; SR11237 100000 nM, RXRα mutant LBD 0.976562 nM) was 8525 and the “HTRF mean; N=2” value (PPARγ LBD; SR11237 100000 nM, RXRα mutant LBD 1.95312 nM) was 8620. For the same molecule, the “HTRF mean; N=2” value (PPARγ LBD; SR11237 100000 nM, RXRα mutant LBD 3.90625 nM) was 8706, the “HTRF mean; N=2” value (PPARγ LBD; SR11237 100000 nM, RXRα mutant LBD 7.8125 nM) was 8679 and the “HTRF mean; N=2” value (PPARγ LBD; SR11237 100000 nM, RXRα mutant LBD 31.25 nM) was 8875. For the same molecule, the “HTRF mean; N=2” value (PPARγ LBD; SR11237 100000 nM, RXRα mutant LBD 62.5 nM) was 9423, the “HTRF mean; N=2” value (PPARγ LBD; SR11237 100000 nM, RXRα mutant LBD 250 nM) was 9880 and the “HTRF mean; N=2” value (PPARγ LBD; SR11237 100000 nM, RXRα mutant LBD 500 nM) was 10045. For the same molecule, the “HTRF mean; N=2” value (PPARγ LBD; SR11237 100000 nM, RXRα mutant LBD 1000 nM) was 9921, the “HTRF mean; N=2” value (PPARγ LBD; SR11237 […], RXRα mutant LBD 0.976562 nM) was 8114 and the “HTRF mean; N=2” value (PPARγ LBD; SR11237 […], RXRα mutant LBD 1.95312 nM) was 8140. For the same molecule, the “HTRF mean; N=2” value (PPARγ LBD; SR11237 […], RXRα mutant LBD 3.90625 nM) was 8154, the “HTRF mean; N=2” value (PPARγ LBD; SR11237 […], RXRα mutant LBD 7.8125 nM) was 8229 and the “HTRF mean; N=2” value (PPARγ LBD; SR11237 […], RXRα mutant LBD 31.25 nM) was 8421. For the same molecule, the “HTRF mean; N=2” value (PPARγ LBD; SR11237 […], RXRα mutant LBD 62.5 nM) was 8922, the “HTRF mean; N=2” value (PPARγ LBD; SR11237 […], RXRα mutant LBD 250 nM) was 9616 and the “HTRF mean; N=2” value (PPARγ LBD; SR11237 […], RXRα mutant LBD 500 nM) was 9926. For the same molecule, the “HTRF mean; N=2” value (PPARγ LBD; SR11237 […], RXRα mutant LBD 1000 nM) was 9869, the “CBP-1 recruitment relative to that seen with rosiglitazone” value (PPARγ LBD; other factor (RXRα or SR11237) present at ≤1 nM) was ≤ 5% and the “effect on NCOR1 corepressor binding” value (RXRα LBD mutant) was “Agonist dependent displacement of NCOR1”. For the same molecule, the “transactivation of reporter gene expression” value (Gal4-RXRα wildtype) was “substantial increase in transactivation”.

Source: publication PMC8258697 (The Journal of Biological Chemistry, 2021)
